# Results reported in patent US7387806B2, “Method of using geranium oil and sophora root extracts as a supporting composition in cancer treatments” (priority 2001, dated 2008).
# Experiment: Pharmacokinetics study of intravenous injection of matrine or oxymatrine with addition of geranium oil
# Method: The Sophora root typically is about 10-30 cm long, 1-2 cm in diameter and generally takes on a grayish brown or grayish yellow color. The root preferably has a mild scent and an extremely bitter taste. It is grown mainly in China, Korea, and Japan. Presently, the alkaloids identified in Sophora roots are matrine, oxymatrine, sophoranol, N-methylcytisine, anagyrine, baptifoline, sophocarpine, sophoridine, iso matrine, 7, 11-Dehydromatrine, sophoramine, 7-Dehydrosophoramine, 9α-Hydroxy-Sophoramine, 5α,9α-Dihydroxymatrine, N-Oxysophocarpine, sophoranol N-oxide, rhombifoline, Lupanine, Mamanine, Kuraramine, Isokuraramine, Kurarinol. The known main constituents are matrine, oxymatrine. The principal main constituents of Sophora flavescenes are also found in Sophora subprostrata, Sophora tonkinensis, Sophora alopecuroides, Sophora moorcroftiana, and Euchresta strigillosa.
"effect of addition of geranium oil on absorption and metabolism of the compound (in vivo, iv)",Compound,"effect of addition of geranium oil on absorption and metabolism of the compound (intravenous injection, with vs without geranium oil)"
increase the absorption and metabolism,O=C1CCC[C@@H]2[C@H]3CCC[N+]4([O-])CCC[C@@H](CN12)[C@@H]34 (some centres unmarked) [oxymatrine],–
–,O=C1CCC[C@@H]2[C@H]3CCCN4CCC[C@@H](CN12)[C@@H]34 [matrine],increase the absorption and metabolism
